System: PAKT/PKB (p-(S473) AKT) in H209 small cell lung carcinoma cells stimulated with Stem Cell Factor
Experiment: PAKT/PKB Cytoblot Assay with H209 cells (SCF-stimulated p-(S473) AKT)
Assay type: cell-based
Conditions: Homo sapiens, NCI-H209, compound 1 hour, SCF 25 ng/mL 5 minutes
Procedure: PAKT/PKB Cytoblot Assay Protocol with H209 Cells
H209 small cell lung carcinoma cells in log phase were plated at 50,000 cells/well in 96-well poly-lysine coated, clear bottom/black-sided plates (BD Cat # 354640) in 100 μl RPMI medium containing 0.1% (w/v) BSA, and incubated overnight at 37° C. in 5% CO2 incubator. The following day, compounds (10 mM stock solutions in DMSO) were added to the plates to generate final concentrations of 0.0, 0.01, 0.03, 0.1, 0.3, 1.0, 3.0 and 10 μM for IC50 determinations and incubated for 1 hour at 37° C. Cells were then left untreated or stimulated with Stem Cell Factor (SCF: Biosource Cat # PHC2116) at a final concentration of 25 ng/mL for 5 minutes at 37° C. in 5% CO2 incubator. The media was then removed using a vacuum manifold and the cells were washed once with Tris Buffered Saline (TBS).
Cells were then fixed by adding 200 μl of cold 3.7% (v/v) formaldehyde in TBS to each well for 15 minutes at 4° C. After removal of the formaldehyde, the cells were treated with the addition of 50 μl of methanol (at −20° C.) to each well for 5 minutes. After removal of the methanol, […] of 1% (w/v) BSA in TBS was added to each well to block non-specific antibody binding sites and the plate was incubated at room temperature for 30 minutes.
After removal of the blocking buffer, 50 μl of p-(S473) AKT rabbit polyclonal antibody (Cell Signaling Cat # 9277S) was added at a dilution of 1:250 in 0.1% (w/v) BSA in TBS, and the plate was incubated at room temperature for 1 hour. Plates were then washed 3 times with cold TBS containing 0.05% (v/v) Tween 20 (TBS-T) and […] of Horseradish peroxidase (HRP)-conjugated goat-anti-rabbit antibody (Amersham Cat # NA934V) at a dilution of 1:250 in TBS-T was added and the plate was incubated at room temperature for 1 h. After washing with ice-cold TBS-T four times, 100 μl of Enhanced Chemiluminescence (ECL) reagent (Amersham Cat# RPN2209) was added to each well and mixed on a mini-orbital shaker for 1 min. The plate was then read on a Perkin Elmer Victor 5 Multilabel Counter (#1420-0421).

[1] = group: between 500 nM and 1 μM (units in value)

Q: With `COc1ccc(NCc2ccncc2)c(C(=O)Nc2ccc3c(c2)OC(F)(F)C(F)(F)O3)c1` [Example 1, 5-methoxy-2-[(pyridin-4-ylmethyl)amino]-N-(2,2,3,3-tetrafluoro-2,3-dihydro-1,4-benzodioxin-6-yl)benzamide] as the compound, how does the IC50 (group: between 1 and 3 μM) read?
A: 1000 to 3000 nM

Q: How did the IC50 (group: less than 500 nM) turn out when `O=C(Nc1ccc2c(c1)C(F)(F)OC(F)(F)O2)c1ccccc1NCc1ccncc1` [Example 2, 2-[(pyridin-4-ylmethyl)amino]-N-(2,2,4,4-tetrafluoro-4H-1,3-benzodioxin-6-yl)benzamide] was run?
A: < 500 nM

Q: With `CNC(=O)c1cc(CNc2ccccc2C(=O)Nc2ccc3c(c2)OC(F)(F)C(F)(F)O3)ccn1` [Example 3, N-methyl-4-{[(2-{[(2,2,3,3-tetrafluoro-2,3-dihydro-1,4-benzodioxin-6-yl)amino]carbonyl}phenyl)amino]methyl}pyridine-2-carboxamide] as the compound, how does the IC50 (group: less than 500 nM) read?
A: < 500 nM

Q: With `CNC(=O)c1cc(CNc2ccccc2C(=O)Nc2ccc3c(c2)C(F)(F)OC(F)(F)O3)ccn1` [Example 4, N-methyl-4-{[(2-{[(2,2,4,4-tetrafluoro-4H-1,3-benzodioxin-6-yl)amino]carbonyl}phenyl)amino]methyl}pyridine-2-carboxamide] as the compound, how does the IC50 (group: less than 500 nM) read?
A: < 500 nM

Q: How did the IC50 (group: less than 500 nM) turn out when `O=C(Nc1ccc2c(c1)OC(F)(F)O2)c1ccccc1NCc1ccncc1` [Example 5, N-(2,2-difluoro-1,3-benzodioxol-5-yl)-2-[(pyridin-4-ylmethyl)amino]benzamide] was run?
A: < 500 nM

Q: With `O=C(Nc1ccc2c(c1)OC(F)(F)C(F)(F)O2)c1ccccc1NCc1ccncc1` [Example 6, 2-[(pyridin-4-ylmethyl)amino]-N-(2,2,3,3-tetrafluoro-2,3-dihydro-1,4-benzodioxin-6-yl)benzamide] as the compound, how does the IC50 (group: less than 500 nM) read?
A: < 500 nM

Q: How did the IC50 (group: between 1 and 3 μM) turn out when `COc1cccc(C(=O)Nc2ccc3c(c2)OC(F)(F)C(F)(F)O3)c1NCc1ccncc1` [Example 7, 3-methoxy-2-[(pyridin-4-ylmethyl)amino]-N-(2,2,3,3-tetrafluoro-2,3-dihydro-1,4-benzodioxin-6-yl)benzamide] was run?
A: 1000 to 3000 nM

Q: `COc1cccc(C(=O)Nc2ccc3c(c2)C(F)(F)OC(F)(F)O3)c1NCc1ccncc1` [Example 8, 3-methoxy-2-[(pyridin-4-ylmethyl)amino]-N-(2,2,4,4-tetrafluoro-4H-1,3-benzodioxin-6-yl)benzamide] was tested. Which IC50 [1] did it give?
A: 500 to 1000 nM

Q: With `COc1cccc(NCc2ccncc2)c1C(=O)Nc1ccc2c(c1)OC(F)(F)C(F)(F)O2` [Example 9, 2-methoxy-6-[(pyridin-4-ylmethyl)amino]-N-(2,2,3,3-tetrafluoro-2,3-dihydro-1,4-benzodioxin-6-yl)benzamide] as the compound, how does the IC50 (group: less than 500 nM) read?
A: < 500 nM

Q: With `COc1cccc(NCc2ccncc2)c1C(=O)Nc1ccc2c(c1)C(F)(F)OC(F)(F)O2` [Example 10, 2-methoxy-6-[(pyridin-4-ylmethyl)amino]-N-(2,2,4,4-tetrafluoro-4H-1,3-benzodioxin-6-yl)benzamide] as the compound, how does the IC50 (group: less than 500 nM) read?
A: < 500 nM

Q: Which IC50 (group: less than 500 nM) does the source give for `COc1cccc(NCc2ccncc2)c1C(=O)Nc1ccc2c(c1)OC(F)(F)O2` [Example 11, N-(2,2-difluoro-1,3-benzodioxol-5-yl)-2-methoxy-6-[(pyridin-4-ylmethyl)amino]benzamide] here?
A: < 500 nM

Q: `O=C(Nc1ccc2c(c1)OC(F)(F)C(F)(F)O2)c1cccnc1NCc1ccncc1` [Example 12, 2-[(pyridin-4-ylmethyl)amino]-N-(2,2,3,3-tetrafluoro-2,3-dihydro-1,4-benzodioxin-6-yl)nicotinamide] was tested. Which IC50 (group: less than 500 nM) did it give?
A: < 500 nM

Q: With `Cc1ccc(C(=O)Nc2ccc3c(c2)OC(F)(F)C(F)(F)O3)c(NCc2ccncc2)n1` [Example 13, 6-methyl-2-[(pyridin-4-ylmethyl)amino]-N-(2,2,3,3-tetrafluoro-2,3-dihydro-1,4-benzodioxin-6-yl)nicotinamide] as the compound, how does the IC50 (group: less than 500 nM) read?
A: < 500 nM

Q: Which IC50 (group: less than 500 nM) does the source give for `O=C(Nc1ccc2c(c1)OC(F)(F)C(F)(F)O2)c1cnccc1NCc1ccncc1` [Example 14, 4-[(pyridin-4-ylmethyl)amino]-N-(2,2,3,3-tetrafluoro-2,3-dihydro-1,4-benzodioxin-6-yl)nicotinamide] here?
A: < 500 nM

Q: How did the IC50 (group: less than 500 nM) turn out when `O=C(Nc1ccc2c(c1)OC(F)(F)O2)c1cccnc1NCc1ccncc1` [Example 15, N-(2,2-difluoro-1,3-benzodioxol-5-yl)-2-[(pyridin-4-ylmethyl)amino]nicotinamide] was run?
A: < 500 nM

Q: With `O=C(Nc1ccc2c(c1)C(F)(F)OC(F)(C(F)(F)F)O2)c1cccnc1NCc1ccncc1` (stereo not drawn) [Example 16, 2-[(Pyridin-4-ylmethyl)amino]-N-[2,4,4-trifluoro-2-(trifluoromethyl)-4H-1,3-benzodioxin-6-yl]nicotinamide] as the compound, how does the IC50 [1] read?
A: 500 to 1000 nM

Q: With `O=C(Nc1ccc2c(c1)OC(F)(F)C(F)(F)O2)c1ncccc1NCc1ccncc1` [Example 17, 3-[(Pyridin-4-ylmethyl)amino]-N-(2,2,3,3-tetrafluoro-2,3-dihydro-1,4-benzodioxin-6-yl)pyridine-2-carboxamide] as the compound, how does the IC50 (group: less than 500 nM) read?
A: < 500 nM

Q: `O=C(Nc1ccc2c(c1)OC(F)(F)C(F)(F)O2)c1ccc(F)cc1NCc1ccncc1` [Example 18, 4-fluoro-2-[(pyridin-4-ylmethyl)amino]-N-(2,2,3,3-tetrafluoro-2,3-dihydro-1,4-benzodioxin-6-yl)benzamide] was tested. Which IC50 (group: less than 500 nM) did it give?
A: < 500 nM

Q: `O=C(Nc1ccc2c(c1)OC(F)(F)C(F)(F)O2)c1cc(F)ccc1NCc1ccncc1` [Example 19, 5-fluoro-2-[(pyridin-4-ylmethyl)amino]-N-(2,2,3,3-tetrafluoro-2,3-dihydro-1,4-benzodioxin-6-yl)benzamide] was tested. Which IC50 (group: less than 500 nM) did it give?
A: < 500 nM

Q: Which IC50 (group: less than 500 nM) does the source give for `O=C(Nc1ccc2c(c1)OC(F)(F)O2)c1cc(F)ccc1NCc1ccncc1` [Example 20, N-(2,2-difluoro-1,3-benzodioxol-5-yl)-5-fluoro-2-[(pyridin-4-ylmethyl)amino]benzamide] here?
A: < 500 nM

Q: For `O=C(Nc1ccc2c(c1)OC(F)(F)O2)c1ccc(F)cc1NCc1ccncc1` [Example 21, N-(2,2-difluoro-1,3-benzodioxol-5-yl)-4-fluoro-2-[(pyridin-4-ylmethyl)amino]benzamide], which IC50 (group: less than 500 nM) is on record?
A: < 500 nM

Q: For `N#Cc1cc(CNc2ccccc2C(=O)Nc2ccc3c(c2)OC(F)(F)C(F)(F)O3)ccn1` [Example 22, 2-{[(2-cyanopyridin-4-yl)methyl]amino}-N-(2,2,3,3-tetrafluoro-2,3-dihydro-1,4-benzodioxin-6-yl)benzamide], which IC50 (group: less than 500 nM) is on record?
A: < 500 nM

Q: With `N#Cc1cc(CNc2ccccc2C(=O)Nc2ccc3c(c2)C(F)(F)OC(F)(F)O3)ccn1` [Example 23, 2-{[(2-cyanopyridin-4-yl)methyl]amino}-N-(2,2,4,4-tetrafluoro-4H-1,3-benzodioxin-6-yl)benzamide] as the compound, how does the IC50 (group: less than 500 nM) read?
A: < 500 nM

Q: Which IC50 (group: less than 500 nM) does the source give for `CNC(=O)c1cc(CNc2ccccc2C(=O)Nc2ccc3c(c2)OC(F)(F)O3)ccn1` [Example 24, 4-{[(2-{[(2,2-difluoro-1,3-benzodioxol-5-yl)amino]carbonyl}phenyl)amino]methyl}-N-methylpyridine-2-carboxamide] here?
A: < 500 nM

Q: With `N#Cc1cc(CNc2ccccc2C(=O)Nc2ccc3c(c2)OC(F)(F)O3)ccn1` [Example 25, 2-{[(2-cyanopyridin-4-yl)methyl]amino}-N-(2,2-difluoro-1,3-benzodioxol-5-yl)benzamide] as the compound, how does the IC50 (group: less than 500 nM) read?
A: < 500 nM

Q: With `Cc1cc(CNc2ccccc2C(=O)Nc2ccc3c(c2)OC(F)(F)C(F)(F)O3)nc(Cl)n1` [Example 26, 2-{[(2-chloro-6-methylpyrimidin-4-yl)methyl]amino}-N-(2,2,3,3-tetrafluoro-2,3-dihydro-1,4-benzodioxin-6-yl)benzamide] as the compound, how does the IC50 (group: between 1 and 3 μM) read?
A: 1000 to 3000 nM

Q: How did the IC50 (group: between 1 and 3 μM) turn out when `N#Cc1cc(CNc2ccc(F)cc2C(=O)Nc2ccc3c(c2)OC(F)(F)C(F)(F)O3)ccn1` [Example 27, 2-{[(2-cyanopyridin-4-yl)methyl]amino}-5-fluoro-N-(2,2,3,3-tetrafluoro-2,3-dihydro-1,4-benzodioxin-6-yl)benzamide] was run?
A: 1000 to 3000 nM

Q: With `N#Cc1cc(CNc2cc(F)ccc2C(=O)Nc2ccc3c(c2)OC(F)(F)C(F)(F)O3)ccn1` [Example 28, 2-{[(2-cyanopyridin-4-yl)methyl]amino}-4-fluoro-N-(2,2,3,3-tetrafluoro-2,3-dihydro-1,4-benzodioxin-6-yl)benzamide] as the compound, how does the IC50 [1] read?
A: 500 to 1000 nM

Q: Which IC50 (group: less than 500 nM) does the source give for `N#Cc1cc(CNc2cc(F)ccc2C(=O)Nc2ccc3c(c2)OC(F)(F)O3)ccn1` [Example 29, 2-{[(2-cyanopyridin-4-yl)methyl]amino}-N-(2,2-difluoro-1,3-benzodioxol-5-yl)-4-fluorobenzamide] here?
A: < 500 nM

Q: `N#Cc1cc(CNc2ccc(F)cc2C(=O)Nc2ccc3c(c2)OC(F)(F)O3)ccn1` [Example 30, 2-{[(2-cyanopyridin-4-yl)methyl]amino}-N-(2,2-difluoro-1,3-benzodioxol-5-yl)-5-fluorobenzamide] was tested. Which IC50 (group: less than 500 nM) did it give?
A: < 500 nM

Source: patent publication US20080293696A1, “2-Aminoarylcarboxamides Useful as Cancer Chemotherapeutic Agents” (Bayer Pharmaceuticals Corporation, priority 2004, published 2008)
